Patent publication US20250214925A1, “CATIONIC LIPID, LIPOSOME, LIPID NANOPARTICLE, AND USE” (CARCELL BIOPHARMA LTD., priority 2022, published 2025)

How the values were obtained:
[1] = tested on: mice; test: In vivo delivery of Ffluc mRNA LNP in mice, intravenous administration, luminescence relative to MC3; parameters: species or system mice (female Balb/C); conditions: fold change in luminescence intensity relative to MC3; 0.06 mg/kg tail vein; 6 h after injection
Procedure: The prepared encapsulation solution was applied to mice in the following manner, and its delivery efficiency in mice was tested. Among them, DLin-MC3-DMA (MC3) was a cationic liposome for delivering small nucleic acids that was approved by the FDA for marketing in 2018, which has high nucleic acid drug delivery efficiency and biosafety, and was usually used as the industry gold standard in the screening process of cationic lipids. In the evaluation of mice experiments, the ratio of nucleic acid delivery efficiency normalized to MC3 was greater than 0.1, which was considered to be a cationic lipid with high delivery efficiency.
1. The LNP solution was diluted with 50 mM TBS, pH 7.4 to a concentration of 0.1 mg/mL mRNA.
2. The mice involved in this study were female Balb/C, weighing 18-22 g, 6-8 weeks old, with 5 mice in each group.
3. The dosing solution was kept at 4° C. prior to injection.
4. Each mice received 0.06 mg/kg via tail vein injection.
5. The mice were injected intraperitoneally with 200 μL of 1.5 mg/mL D-luciferin solution 6 h after injection.
6. The in vivo luminescence images of the mice were obtained using the IVIS system (Aniview).
7. The luminescence intensity of each mice was measured using Aniview software.
8. MC3 lipid nanoparticles were used as a positive control. The in vivo efficacy of each cationic lipid tested was recorded as the fold change in luminescence intensity relative to MC3 (ratio normalized to MC3).

[2] = mRNA encapsulation efficiency of LNP by Ribogreen assay; type: physicochemical; conditions: LNP: 50% cationic lipid, 38.5% cholesterol, 10% DSPC, 1.5% DMG-PEG2000; Ffluc mRNA
Procedure: (§1) 1. The cationic lipid (50 mg/mL) prepared in the above examples of the present disclosure, cholesterol (20 mg/mL), DSPC (20 mg/mL) and DMG-PEG2000 (20 mg/mL) were dissolved in ethanol, and the solution was placed in a 55° C. metal thermostatic bath as needed to aid dissolution, to obtain a lipid mixture with the following molar composition: 1.5% DMG-PEG2000, 50% cationic lipid, 38.5% cholesterol, and 10% DSPC.
(§2) 2. The mRNA encoding Ffluc was diluted with 10 mM pH 4.0 citrate buffer to prepare a 0.2 mg/mL mRNA solution.
(§3) 3. The lipid mixture prepared in step 1 was mixed with the mRNA solution prepared in step 2 using a syringe pump with a tee at a total flow rate of 40 mL/min.
(§4) 4. The LNP mixture was collected after the three-way mixing and placed in a dialysis bag with a molecular weight cut-off of 100 KDa.
(§5) 5. The LNP mixture was dialyzed overnight against 50 mM Tris-buffered saline, pH 7.4.
(§6) 6. Sieving, and subsequent measurement of the sieved LNP to measure the PDI of the LNP by dynamic laser light scattering; to measure the mRNA encapsulation efficiency and concentration by Ribogreen assay; and to measure the pKa by TNS-α assay.

[3] = LNP size and PDI by dynamic laser light scattering; type: physicochemical; conditions: LNP: 50% cationic lipid, 38.5% cholesterol, 10% DSPC, 1.5% DMG-PEG2000; Ffluc mRNA
Procedure: as §1, §2, §3, §4, §5, §6

Compound	In Vivo Efficacy Normalized To Mc3 In Mice (Intravenous Injection) [1]	Encapsulation Rate [2] [%]	PDI [3]	Size (nm) [3] [nm]
3-((((2-(dimethylamino)ethoxy)carbonyl)oxy)-2-((((E)-3-hexylundec-2-enoyl)oxy)methyl)propyl(97,127)-octadeca-9,12-dienoate [CPL-203]	0.23			
CCCCC/C=C\C/C=C\CCCCCCCC(=O)OCC(COC(=O)C=C(CCCCCCCCC)CCCCCCCCC)COC(=O)OCCCN(CC)CC (centres unmarked) [CPL-001-01, 3-(((3-(diethylamino)propoxy)carbonyl)oxy)-2-(((3-nonyldodec-2-enoyl)oxy)methyl)propyl(9Z,12Z)-octadeca-9,12-dienoate]	2.00	96	0.0594	62.9
CCCCCCCC/C(=C/C(=O)OCCCCCN(CCCCO)CCCCCOC(=O)/C=C(\CCCCCC)CCCCCCCC)CCCCCC [CPL-003, ((4-hydroxybutyl)azanediyl)bis(pentane-5,1-diyl)(2E,2′E)-bis(3-hexylundec-2-enoate)]	1.55	92	0.205	98
CCCCCCC/C(=C/C(=O)OCCCCN(CCCO)CCCCOC(=O)/C=C(\CCCCCC)CCCCCCC)CCCCCC [CPL-031, ((3-hydroxypropyl)azanediyl)bis(butane-4,1-diyl) (2E,2′E)-bis(3-hexyldec-2-enoate)]	0.75	94	0.2448	92.39
CCCCCCCC/C(=C\C(=O)OCCCCN(CCCO)CCCCOC(=O)/C=C(/CCCCCCC)CCCCCCCC)CCCCCCC [CPL-032, ((3-hydroxypropyl)azanediyl)bis(butane-4,1-diyl)(2Z,2′Z)-bis(3-heptylundec-2-enoate)]	1.18	91	0.1692	90.11
CCCCCCCC/C(=C/C(=O)OCCCCCN(CCCO)CCCCCOC(=O)/C=C(\CCC)CCCCCCCC)CCC [CPL-039, ((3-hydroxypropyl)azanediyl)bis(pentane-5,1-diyl)(2E,2′E)-bis(3-propylundec-2-enoate)]	1.44	94	0.2202	97.61
CCCCCCCC/C(=C/C(=O)OCCCCCN(CCCO)CCCCCOC(=O)/C=C(\CCCC)CCCCCCCC)CCCC [CPL-043, ((3-hydroxypropyl)azanediyl)bis(pentane-5,1-diyl)(2E,2′E)-bis(3-butylundec-2-enoate)]	1.58	95	0.1723	77.48
CCCCCCCCCC/C(=C/C(=O)OCCCCCN(CCCO)CCCCCOC(=O)/C=C(\CCCC)CCCCCCCCCC)CCCC [CPL-044, ((3-hydroxypropyl)azanediyl)bis(pentane-5,1-diyl)(2E,2′E)-bis(3-butyltridec-2-enoate)]	1.26	98	0.15	78.4
CCCCCCCC/C(=C/C(=O)OCCCCCCN(CCCO)CCCCCCOC(=O)/C=C(\CCCCC)CCCCCCCC)CCCCC [CPL-047, ((3-hydroxypropyl)azanediyl)bis(hexane-6,1-diyl) (2E,2′E)-bis(3-pentylundec-2-enoate)]	1.59	96	0.25	114.7
CCCCC/C=C\C/C=C\CCCCCCCC(=O)OCC(COC(=O)/C=C(\CCCCCCC)CCCCCCCC)COC(=O)OCCN(C)C (centres unmarked) [CPL-208, 3-(((2-(dimethylamino)ethoxy)carbonyl)oxy)-2-((((E)-3-heptylundec-2-enoyl)oxy)methyl)propyl(9Z,12Z)-octadeca-9,12-dienoate]		95	0.2382	96.3
CCCCC/C=C\C/C=C\CCCCCCCC(=O)OCC(COC(=O)C=C(CCCCCCCCCC)CCCCCCCCCC)COC(=O)OCCCN(C)C (centres unmarked) [CPL-234, 3-((3-decyltridec-2-enoyl)oxy)-2-((((3-(dimethylamino)propoxy)carbonyl)oxy)methyl)propyl(9Z,12Z)-octadeca-9,12-dienoate]	0.96			
CCCCC/C=C\C/C=C\CCCCCCCC(=O)OCC(COC(=O)/C=C(\CCC)CCCCCC)COC(=O)OCCC1CCN(C)CC1 (centres unmarked) [CPL-280, 3-(((2-(1-methylpiperidin-4-yl)ethoxy)carbonyl)oxy)-2-((((E)-3-propylnon-2-enoyl)oxy)methyl)propyl(9Z,12Z)-octadeca-9,12-dienoate]		97	0.2607	119.6
CCCCC/C=C\C/C=C\CCCCCCCC(=O)OCC(COC(=O)/C=C(\CCCCC)CCCCCCCC)COC(=O)OCCC1CCN(C)CC1 (centres unmarked) [CPL-289, 3-(((2-(1-methylpiperidin-4-yl)ethoxy)carbonyl)oxy)-2-((((E)-3-pentylundec-2-enoyl)oxy)methyl)propyl(9Z,12Z)-octadeca-9,12-dienoate]		97	0.1371	83
CCCCC/C=C\C/C=C\CCCCCCCC(=O)OCC(COC(=O)/C=C(\CCCCC)CCCCCCCCCC)COC(=O)OCCC1CCN(C)CC1 (centres unmarked) [CPL-290]		98	0.1615	105.5
CCCCC/C=C\C/C=C\CCCCCCCC(=O)OCC(COC(=O)/C=C(\CCCC)CCCCC)COC(=O)OCC(C)(C)CN(C)C (centres unmarked) [CPL-309, 3-(((E)-3-butyloct-2-enoyl)oxy)-2-((((3-(dimethylamino)-2,2-dimethylpropoxy)carbonyl)oxy)methyl)propyl(9Z,12Z)-octadeca-9,12-dienoate]		93	0.0937	76.44
CCCCC/C=C\C/C=C\CCCCCCCC(=O)OCC(COC(=O)/C=C(\CCCC)CCCCCCC)COC(=O)OCC(C)(C)CN(C)C (centres unmarked) [CPL-316, 3-(((E)-3-butyldec-2-enoyl)oxy)-2-((((3-(dimethylamino)-2,2-dimethylpropoxy)carbonyl)oxy)methyl)propyl(9Z,12Z)-octadeca-9,12-dienoate]		93	0.1387	75.82
CCCCC/C=C\C/C=C\CCCCCCCC(=O)OCC(COC(=O)C=C(CCCCCCCCCC)CCCCCCCCCC)COC(=O)OCC(C)(C)CN(C)C (centres unmarked) [CPL-322, 3-((3-decyltridec-2-enoyl)oxy)-2-((((3-(dimethylamino)-2,2-dimethylpropoxy)carbonyl)oxy)methyl)propyl(9Z,12Z)-octadeca-9,12-dienoate]		94	0.1302	96.21
CCCCC/C=C\C/C=C\CCCCCCCC(=O)OCC(COC(=O)/C=C(\CCCCC)CCCCCC)COC(=O)OCCCN1CCN(C)CC1 (centres unmarked) [CPL-398, 3-(((3-(4-methylpiperazin-1-yl)propoxy)carbonyl)oxy)-2-((((E)-3-pentylnonan-2-enoyl)oxy)methyl)propyl(9Z,12Z)-octadeca-9,12-dienoate]		97	0.0778	115.7
CCCCC/C=C\C/C=C\CCCCCCCC(=O)OCC(COC(=O)/C=C(/CCCCCCCC)CCCCCCCCCC)COC(=O)OCCCN1CCN(C)CC1 (centres unmarked) [CPL-409, 3-(((3-(4-methylpiperazin-1-yl)propoxy)carbonyl)oxy)-2-((((Z)-3-octyltridec-2-enoyl)oxy)methyl)propyl(9Z 12Z)-octadeca-9,12-dienoate]		96	0.1474	94.97
CCCCCC/C(=C/C(=O)OCCCCCCCCN(CCO)CCCCCCCCOC(=O)/C=C(\CCCC)CCCCCC)CCCC [CPL-455-01, ((2-hydroxyethyl)azanediyl)bis(octane-8,1-diyl) (2E,2′E)-bis(3-butylnon-2-enoate)]		85	0.1065	69.76
CCCCCCCCCC/C(=C/C(=O)OCCCCCN(CCCO)CCCCCOC(=O)/C=C(\CCCC)CCCCCCCCCC)CCC [CPL-1092]	0.83			
